{
  "source": "the supplement of paper PMC10307832",
  "test_in_all_cases": "relative viability (nuclei count vs DMSO), 5 days (fraction); higher = more cells survive",
  "key": {"Tosedostat + Linsitinib": {"compound": "CC(C)C[C@@H](C(=O)N[C@H](C(=O)OC1CCCC1)c1ccccc1)[C@H](O)C(=O)NO [Tosedostat] + C[C@]1(O)C[C@@H](c2nc(-c3ccc4ccc(-c5ccccc5)nc4c3)c3c(N)nccn32)C1 [Linsitinib] (partner 1 µM)", "summary_of_the_method": "(§1)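 A single step with final 0.05% Triton X-100, 1% formaldehyde and 1 ug/ml Hoechst fixed the cells and stained nuclei 5 days after treatment. Lung cancer cell lines in 1536-well plates had been treated by pin tool the day after seeding with one drug alone or a fixed anchor-drug dose plus five library-drug doses (not always all listed) in √10 steps, and nuclei were counted on 4× images. Relative viability is the ratio of nuclei in treated wells to nuclei in vehicle wells, taken as the median of duplicate plates.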"}, "[1]": {"compound": "CC1=NN=C(O1)C2=NN=C(C=C2)N3CCC(CC3)OC4=C(C=CC(=C4)F)Cl + CC(C)C[C@H](NC(=O)[C@H](Cc1ccccc1)NC(=O)c1cnccn1)B(O)O [Bortezomib] (partner 0.002 µM)", "summary_of_the_method": "as §1"}, "[2]": {"compound": "CC1=NN=C(O1)C2=NN=C(C=C2)N3CCC(CC3)OC4=C(C=CC(=C4)F)Cl + COc1cc2c(Oc3ccc(NC(=O)C4(C(=O)Nc5ccc(F)cc5)CC4)cc3F)ccnc2cc1OCCCN1CCOCC1 [Foretinib] (partner 0.25 µM)", "summary_of_the_method": "as §1"}, "[3]": {"compound": "CC1=NN=C(O1)C2=NN=C(C=C2)N3CCC(CC3)OC4=C(C=CC(=C4)F)Cl + COc1cccc2cc(-c3nc([C@H]4CC[C@H](C(=O)O)CC4)n4ncnc(N)c34)[nH]c12 [OSI-027] (partner 0.5 µM)", "summary_of_the_method": "as §1"}},
  "data": [
    {"cell line": "UMC-11", "values": [
      {"measurement": "relative viability", "setting": "Tosedostat + Linsitinib; first compound 0.02 µM", "value": 0.995},
      {"measurement": "relative viability", "setting": "Tosedostat + Linsitinib; first compound 0.06325 µM", "value": 1.08},
      {"measurement": "relative viability", "setting": "Tosedostat + Linsitinib; first compound 0.2 µM", "value": 0.951},
      {"measurement": "relative viability", "setting": "Tosedostat + Linsitinib; first compound 0.6325 µM", "value": 0.898},
      {"measurement": "relative viability", "setting": "Tosedostat + Linsitinib; first compound 2 µM", "value": 0.976},
      {"measurement": "relative viability", "setting": "[1]; first compound 0.253 µM", "value": 0.66},
      {"measurement": "relative viability", "setting": "[1]; first compound 0.8 µM", "value": 0.533},
      {"measurement": "relative viability", "setting": "[1]; first compound 2.53 µM", "value": 0.636},
      {"measurement": "relative viability", "setting": "[1]; first compound 8 µM", "value": 0.575},
      {"measurement": "relative viability", "setting": "[2]; first compound 0.253 µM", "value": 0.539},
      {"measurement": "relative viability", "setting": "[2]; first compound 0.8 µM", "value": 0.57},
      {"measurement": "relative viability", "setting": "[2]; first compound 2.53 µM", "value": 0.543},
      {"measurement": "relative viability", "setting": "[2]; first compound 8 µM", "value": 0.501},
      {"measurement": "relative viability", "setting": "[3]; first compound 0.253 µM", "value": 0.446},
      {"measurement": "relative viability", "setting": "[3]; first compound 0.8 µM", "value": 0.482},
      {"measurement": "relative viability", "setting": "[3]; first compound 2.53 µM", "value": 0.529},
      {"measurement": "relative viability", "setting": "[3]; first compound 8 µM", "value": 0.565}
    ]}
  ]
}
